{
  "source": "patent US11266642B2",
  "about": "“Small molecule inhibitors of HLA-DR3 binding for treating autoimmune thyroiditis” (ICAHN SCHOOL OF MEDICINE AT MOUNT SINAI, priority 2015, dated 2022)",
  "key": {"[1]": {"target": "T1, HLA-DRβ1-Arg74 (Homo sapiens, UniProt P01903+P01911, A100K/A102G/A103R/A169T/F55Y/I96L/K41T/L162R/M171V/P40S/Q125H/Q178H/Q39Y/R42S/S66N/T106N/W38E/Y61H)", "T1 construct": "extracellular portion of the DRB1*0301 β chain fused to the coiled coil region; coiled coil region of the basic leucine zipper domain of JunB; TEV protease cutting site (internal)", "T1 sequence (P01903 26-216 limits assumed, other chains not shown)": "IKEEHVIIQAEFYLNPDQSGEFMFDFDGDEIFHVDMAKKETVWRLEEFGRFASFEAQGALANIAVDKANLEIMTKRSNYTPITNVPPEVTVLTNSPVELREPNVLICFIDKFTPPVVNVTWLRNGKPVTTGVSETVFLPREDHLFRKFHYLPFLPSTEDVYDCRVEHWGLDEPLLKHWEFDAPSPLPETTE", "experiment": "In Vitro Arg74 Blocking Test (DELFIA immunoassay, APO peptide binding)", "settings": "10 μM biotinylated APO; 48 h at 37° C.; serial dilution 0.2 to 0.0125 mM; read-out: approximate IC50, inhibition of APO binding to HLA-DRβ1-Arg74", "from_the_text": "HLA-DRβ1-Arg74 protein (containing arginine at position 74 on the β chain) was produced using the baculovirus system. We designed 2 constructs for both the α and β chains of HLA-DR. The β-chain construct contained the extracellular portion of the DRB1*0301 β chain fused to the coiled coil region of the basic Leucine zipper domain of JunB, and the α chain construct contained the extracellular portion of the DR α chain fused to the coiled coil region to the basic Leucine zipper domain of Fos. A TEV protease cutting site was introduced in each chain to allow removal of the dimerization motif. The JunB and Fos dimerization motifs allowed the protein to dimerize and form the final HLA-DRβ1-Arg74 protein. […]\nTest compounds were dissolved in 100% DMSO and tested for their ability to bind to the HLA-DRβ1-Arg74 pocket and block it from binding the peptide using an immunoassay we developed for this purpose, which will be referred to as the “In Vitro Arg74 Blocking Test”. […] Time-resolved fluorescence was measured using the BMG reader (BMG Labtech, Cary, N.C.). […] Percent inhibition was calculated by the following formula: 100−100×[HLA-DRβ1-Arg74-APO-small molecule/HLA-DRβ1-Arg74-APO (no small molecule)])\nTo gauge the potency of the small molecules we determined the percent inhibition at decreasing concentrations of test molecules. […]"}, "[2]": {"test_system": "HLA-DR2", "experiment": "MBP87-99 binding to DR2 expressing cells, flow cytometry (specificity control)", "assay_type": "cell-based, human", "settings": "biotinylated MBP87-99, 24 hours"}},
  "data": [
    {"smiles": "COc1ccc2cc1Oc1ccc(cc1)C[C@H]1c3c(cc4c(c3Oc3cc5c(cc3OC)CCN(C)[C@@H]5C2)OCO4)CCN1C", "note": "[Compound Ia, cepharanthine]", "values": [
      {"measurement": "IC50", "setting": "[1]", "value": "~80", "unit": "µM"},
      {"measurement": "block of MBP87-99 binding to DR2", "setting": "[2]", "value": "did not block"}
    ]}
  ]
}
